From ChEMBL document CHEMBL4330132, “5-Keto-3-cyano-2,4-diaminothiophenes as selective maternal embryonic leucine zipper kinase inhibitors” (Bioorg Med Chem Lett, 2019)

Experiments:
[1] = target: Calcium/calmodulin-dependent protein kinase type II subunit gamma (Homo sapiens) (UniProt Q13555); assay: Binding affinity to wild-type human partial length CAMK2G (R9 to A303 residues) expressed in bacterial expression system assessed as residual binding level at 1 uM by Kinomescan method relative to control
[2] = test system: Mast/stem cell growth factor receptor Kit (Homo sapiens), P10721 [V559D]; assay: Binding affinity to human partial length KIT V559D mutant (Y545 to D952 residues) expressed in bacterial expression system assessed as residual binding level at 1 uM by Kinomescan method relative to control
[3] = target: Casein kinase I isoform alpha (Homo sapiens) (UniProt P48729); assay: Binding affinity to wild-type human partial length CSNK1A1 (M1 to L450 residues) expressed in mammalian expression system assessed as residual binding level at 1 uM by Kinomescan method relative to control
[4] = target: Serine/threonine-protein kinase PAK 5 (Homo sapiens) (UniProt Q9P286); assay: Binding affinity to wild-type human partial length PAK7 (Y400 to H719 residues) expressed in bacterial expression system assessed as residual binding level at 1 uM by Kinomescan method relative to control
[5] = target: Mitogen-activated protein kinase 10 (Homo sapiens) (UniProt P53779); assay: Binding affinity to wild-type human partial length JNK3 (V28 to Q422 residues) expressed in mammalian expression system assessed as residual binding level at 1 uM by Kinomescan method relative to control
[6] = target: Phosphatidylinositol 5-phosphate 4-kinase type-2 beta (Homo sapiens) (UniProt P78356); assay: Binding affinity to wild-type human full length PIP5K2B (M1 to T416 residues) expressed in bacterial expression system assessed as residual binding level at 1 uM by Kinomescan method relative to control
[7] = target: Interleukin-1 receptor-associated kinase 4 (Homo sapiens) (UniProt Q9NWZ3); assay: Binding affinity to wild-type human partial length IRAK4 (M1 to S460 residues) expressed in mammalian expression system assessed as residual binding level at 1 uM by Kinomescan method relative to control
[8] = target: Leukocyte tyrosine kinase receptor (Homo sapiens) (UniProt P29376); assay: Binding affinity to wild-type human partial length LTK (P422 to S744 residues) expressed in bacterial expression system assessed as residual binding level at 1 uM by Kinomescan method relative to control
[9] = test system: Mast/stem cell growth factor receptor Kit (Homo sapiens), P10721 [D816V]; assay: Binding affinity to human partial length KIT D816V mutant (I571 to D952 residues) expressed in bacterial expression system assessed as residual binding level at 1 uM by Kinomescan method relative to control
[10] = target: Serine/threonine-protein kinase SBK1 (Homo sapiens) (UniProt Q52WX2); assay: Binding affinity to wild-type human partial length SBK1 (P23 to P348 residues) expressed in mammalian expression system assessed as residual binding level at 1 uM by Kinomescan method relative to control
[11] = test system: Epidermal growth factor receptor (Homo sapiens), P00533 [G719C]; assay: Binding affinity to human partial length EGFR G719C mutant (R669 to V1011 residues) expressed in bacterial expression system assessed as residual binding level at 1 uM by Kinomescan method relative to control
[12] = target: Tyrosine-protein kinase Blk (Homo sapiens) (UniProt P51451); assay: Binding affinity to wild-type human partial length BLK (G211 to L503 residues) expressed in bacterial expression system assessed as residual binding level at 1 uM by Kinomescan method relative to control
[13] = target: Serine/threonine-protein kinase 36 (Homo sapiens) (UniProt Q9NRP7); assay: Binding affinity to wild-type human partial length STK36 (M1 to T271 residues) expressed in bacterial expression system assessed as residual binding level at 1 uM by Kinomescan method relative to control
[14] = target: Vascular endothelial growth factor receptor 1 (Homo sapiens) (UniProt P17948); assay: Binding affinity to wild-type human partial length FLT1 (R781 to F1239 residues) expressed in bacterial expression system assessed as residual binding level at 1 uM by Kinomescan method relative to control
[15] = target: Glycogen synthase kinase-3 beta (Homo sapiens) (UniProt P49841); assay: Binding affinity to wild-type human full length GSK3B (M1 to T433 residues) expressed in mammalian expression system assessed as residual binding level at 1 uM by Kinomescan method relative to control
[16] = target: Fibroblast growth factor receptor 2 (Homo sapiens) (UniProt P21802); assay: Binding affinity to wild-type human partial length FGFR2 (D457 to E769 residues) expressed in bacterial expression system assessed as residual binding level at 1 uM by Kinomescan method relative to control
[17] = target: Tyrosine-protein kinase Fyn (Homo sapiens) (UniProt P06241); assay: Binding affinity to wild-type human partial length FYN (T243 to L534 residues) expressed in bacterial expression system assessed as residual binding level at 1 uM by Kinomescan method relative to control
[18] = target: Homeodomain-interacting protein kinase 4 (Homo sapiens) (UniProt Q8NE63); assay: Binding affinity to wild-type human partial length HIPK4 (M1 to V384 residues) expressed in bacterial expression system assessed as residual binding level at 1 uM by Kinomescan method relative to control
[19] = target: Wee1-like protein kinase (Homo sapiens) (UniProt P30291); assay: Binding affinity to wild-type human partial length WEE1 (M291 to K575 residues) expressed in bacterial expression system assessed as residual binding level at 1 uM by Kinomescan method relative to control
[20] = target: Receptor-interacting serine/threonine-protein kinase 4 (Homo sapiens) (UniProt P57078); assay: Binding affinity to wild-type human partial length RIPK4 (M1 to V303 residues) expressed in mammalian expression system assessed as residual binding level at 1 uM by Kinomescan method relative to control
[21] = target: Casein kinase I isoform gamma-1 (Homo sapiens) (UniProt Q9HCP0); assay: Binding affinity to wild-type human partial length CSNK1G1 (T15 to S353 residues) expressed in bacterial expression system assessed as residual binding level at 1 uM by Kinomescan method relative to control
[22] = target: Ribosomal protein S6 kinase beta-1 (Homo sapiens) (UniProt P23443); assay: Binding affinity to wild-type human partial length S6K1 (M1 to S421 residues) expressed in mammalian expression system assessed as residual binding level at 1 uM by Kinomescan method relative to control
[23] = target: Serine/threonine-protein kinase 4 (Homo sapiens) (UniProt Q13043); assay: Binding affinity to wild-type human full length MST1 (M1 to F487 residues) expressed in bacterial expression system assessed as residual binding level at 1 uM by Kinomescan method relative to control
[24] = target: Activin receptor type-1 (Homo sapiens) (UniProt Q04771); assay: Binding affinity to wild-type human ACVR1 (C188 to C509 residues) expressed in bacterial expression system assessed as residual binding level at 1 uM by Kinomescan method relative to control
[25] = target: Citron Rho-interacting kinase (Homo sapiens) (UniProt O14578); assay: Binding affinity to wild-type human partial length CIT (M68 to E432 residues) expressed in bacterial expression system assessed as residual binding level at 1 uM by Kinomescan method relative to control
Chain of Citron Rho-interacting kinase (Homo sapiens) (O14578 whole entry, the tested form may be a part): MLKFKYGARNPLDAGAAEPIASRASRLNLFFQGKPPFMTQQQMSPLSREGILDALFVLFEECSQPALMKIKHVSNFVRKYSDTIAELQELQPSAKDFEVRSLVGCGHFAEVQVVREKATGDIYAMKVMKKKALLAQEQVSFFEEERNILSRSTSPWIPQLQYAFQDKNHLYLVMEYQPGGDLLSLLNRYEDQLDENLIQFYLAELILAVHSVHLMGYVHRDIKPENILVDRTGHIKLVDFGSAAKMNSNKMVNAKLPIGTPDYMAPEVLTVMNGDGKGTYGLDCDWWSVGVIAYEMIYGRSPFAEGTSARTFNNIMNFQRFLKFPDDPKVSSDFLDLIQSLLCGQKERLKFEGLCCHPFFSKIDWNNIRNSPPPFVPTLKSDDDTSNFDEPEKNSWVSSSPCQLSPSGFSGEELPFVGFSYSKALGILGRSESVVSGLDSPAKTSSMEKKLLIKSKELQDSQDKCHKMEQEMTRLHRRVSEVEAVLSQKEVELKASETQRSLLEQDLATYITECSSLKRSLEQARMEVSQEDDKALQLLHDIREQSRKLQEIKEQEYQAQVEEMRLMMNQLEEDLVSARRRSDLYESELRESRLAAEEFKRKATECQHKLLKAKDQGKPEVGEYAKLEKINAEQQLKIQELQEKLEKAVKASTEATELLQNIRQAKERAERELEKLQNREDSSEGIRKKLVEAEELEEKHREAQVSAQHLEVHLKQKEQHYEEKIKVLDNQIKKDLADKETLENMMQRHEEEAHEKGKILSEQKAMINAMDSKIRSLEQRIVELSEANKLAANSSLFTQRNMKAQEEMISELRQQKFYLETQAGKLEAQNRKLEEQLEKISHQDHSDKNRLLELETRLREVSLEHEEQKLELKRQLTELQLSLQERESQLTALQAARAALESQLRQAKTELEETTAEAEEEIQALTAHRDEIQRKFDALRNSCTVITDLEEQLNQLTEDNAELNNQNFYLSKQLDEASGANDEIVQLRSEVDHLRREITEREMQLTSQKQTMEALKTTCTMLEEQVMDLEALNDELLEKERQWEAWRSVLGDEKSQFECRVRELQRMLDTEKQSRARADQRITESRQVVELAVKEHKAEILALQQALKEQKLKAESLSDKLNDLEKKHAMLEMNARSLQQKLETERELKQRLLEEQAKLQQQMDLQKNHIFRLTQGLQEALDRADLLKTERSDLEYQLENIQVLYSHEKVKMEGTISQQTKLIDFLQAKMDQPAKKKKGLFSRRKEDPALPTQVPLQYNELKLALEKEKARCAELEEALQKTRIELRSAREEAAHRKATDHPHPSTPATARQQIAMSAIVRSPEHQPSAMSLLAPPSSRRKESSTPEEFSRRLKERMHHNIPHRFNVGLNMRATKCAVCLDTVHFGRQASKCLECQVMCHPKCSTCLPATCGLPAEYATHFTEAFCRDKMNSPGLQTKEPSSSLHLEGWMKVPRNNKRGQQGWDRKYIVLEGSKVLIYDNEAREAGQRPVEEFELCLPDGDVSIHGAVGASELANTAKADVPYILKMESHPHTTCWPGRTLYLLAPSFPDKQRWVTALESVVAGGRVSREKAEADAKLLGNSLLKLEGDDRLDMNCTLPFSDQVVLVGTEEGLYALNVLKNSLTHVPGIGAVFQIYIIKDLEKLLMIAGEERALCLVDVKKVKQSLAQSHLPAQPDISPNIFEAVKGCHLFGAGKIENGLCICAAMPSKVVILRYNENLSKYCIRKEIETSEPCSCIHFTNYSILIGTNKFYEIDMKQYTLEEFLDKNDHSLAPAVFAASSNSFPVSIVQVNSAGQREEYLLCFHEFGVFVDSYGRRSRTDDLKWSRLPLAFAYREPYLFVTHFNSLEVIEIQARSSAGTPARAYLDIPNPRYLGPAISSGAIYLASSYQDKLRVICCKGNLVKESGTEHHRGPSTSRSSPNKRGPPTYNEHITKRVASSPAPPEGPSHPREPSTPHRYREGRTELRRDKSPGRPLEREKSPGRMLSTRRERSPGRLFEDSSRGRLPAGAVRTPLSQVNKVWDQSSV

Chain of Casein kinase I isoform alpha (Homo sapiens) (P48729 2-337 limits assumed): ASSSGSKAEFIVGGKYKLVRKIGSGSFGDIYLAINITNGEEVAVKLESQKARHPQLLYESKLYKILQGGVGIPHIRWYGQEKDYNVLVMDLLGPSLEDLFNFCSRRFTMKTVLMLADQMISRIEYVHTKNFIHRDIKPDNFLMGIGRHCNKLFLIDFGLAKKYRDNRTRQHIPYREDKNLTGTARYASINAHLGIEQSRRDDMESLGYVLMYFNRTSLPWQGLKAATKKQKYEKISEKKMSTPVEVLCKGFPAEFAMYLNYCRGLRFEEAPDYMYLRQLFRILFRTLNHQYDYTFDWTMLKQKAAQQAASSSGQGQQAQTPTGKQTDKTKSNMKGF
Chain of Fibroblast growth factor receptor 2 (Homo sapiens) (P21802 22-821 limits assumed): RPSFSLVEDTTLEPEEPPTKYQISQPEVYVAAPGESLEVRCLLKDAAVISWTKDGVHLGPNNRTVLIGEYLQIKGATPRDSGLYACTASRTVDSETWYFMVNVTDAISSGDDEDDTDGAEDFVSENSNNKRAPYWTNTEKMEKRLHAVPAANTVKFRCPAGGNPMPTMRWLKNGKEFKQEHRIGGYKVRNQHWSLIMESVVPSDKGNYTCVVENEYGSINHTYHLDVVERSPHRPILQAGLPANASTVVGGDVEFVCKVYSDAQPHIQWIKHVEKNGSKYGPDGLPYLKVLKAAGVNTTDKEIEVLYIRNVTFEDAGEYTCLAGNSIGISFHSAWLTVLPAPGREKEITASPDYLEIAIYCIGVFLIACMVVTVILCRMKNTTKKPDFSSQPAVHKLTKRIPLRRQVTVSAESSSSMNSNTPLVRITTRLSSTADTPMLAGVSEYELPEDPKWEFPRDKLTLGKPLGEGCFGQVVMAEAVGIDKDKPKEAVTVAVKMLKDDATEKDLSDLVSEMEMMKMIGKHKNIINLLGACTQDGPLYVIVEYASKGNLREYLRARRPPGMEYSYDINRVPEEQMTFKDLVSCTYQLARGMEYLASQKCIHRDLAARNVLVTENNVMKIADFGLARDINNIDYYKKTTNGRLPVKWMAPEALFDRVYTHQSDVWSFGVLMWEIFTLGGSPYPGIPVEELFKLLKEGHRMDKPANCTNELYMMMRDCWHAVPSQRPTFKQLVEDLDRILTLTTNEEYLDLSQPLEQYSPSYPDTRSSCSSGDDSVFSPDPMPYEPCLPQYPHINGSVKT
Chain of Tyrosine-protein kinase Blk (Homo sapiens) (P51451 2-505 limits assumed): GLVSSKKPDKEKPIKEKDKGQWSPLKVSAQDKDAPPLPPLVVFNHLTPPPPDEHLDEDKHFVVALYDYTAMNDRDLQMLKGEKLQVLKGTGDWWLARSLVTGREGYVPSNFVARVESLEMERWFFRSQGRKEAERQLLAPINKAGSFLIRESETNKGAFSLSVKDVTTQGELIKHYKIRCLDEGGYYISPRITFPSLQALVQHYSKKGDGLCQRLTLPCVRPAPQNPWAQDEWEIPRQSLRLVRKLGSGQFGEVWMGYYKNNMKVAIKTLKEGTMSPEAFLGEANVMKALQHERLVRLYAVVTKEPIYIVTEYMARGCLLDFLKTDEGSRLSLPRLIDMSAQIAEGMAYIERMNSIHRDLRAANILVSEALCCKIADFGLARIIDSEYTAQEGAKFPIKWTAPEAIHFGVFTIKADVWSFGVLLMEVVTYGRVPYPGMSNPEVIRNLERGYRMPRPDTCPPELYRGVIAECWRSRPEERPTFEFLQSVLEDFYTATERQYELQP
Chain of Tyrosine-protein kinase Fyn (Homo sapiens) (P06241 2-537 limits assumed): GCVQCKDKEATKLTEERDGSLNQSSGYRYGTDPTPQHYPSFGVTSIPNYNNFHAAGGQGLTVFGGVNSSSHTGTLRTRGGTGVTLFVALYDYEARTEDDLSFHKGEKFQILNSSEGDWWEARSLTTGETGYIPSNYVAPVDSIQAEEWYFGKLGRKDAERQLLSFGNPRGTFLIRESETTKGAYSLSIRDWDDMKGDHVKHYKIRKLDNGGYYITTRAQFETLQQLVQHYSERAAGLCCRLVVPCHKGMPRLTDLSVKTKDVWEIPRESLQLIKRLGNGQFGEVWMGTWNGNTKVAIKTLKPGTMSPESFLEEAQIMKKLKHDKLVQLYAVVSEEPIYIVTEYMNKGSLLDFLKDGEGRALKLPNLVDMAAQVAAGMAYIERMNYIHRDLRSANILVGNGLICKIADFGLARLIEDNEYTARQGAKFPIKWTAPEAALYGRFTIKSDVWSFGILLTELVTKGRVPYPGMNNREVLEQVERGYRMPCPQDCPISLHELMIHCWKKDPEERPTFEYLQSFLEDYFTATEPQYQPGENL
Chain of Serine/threonine-protein kinase PAK 5 (Homo sapiens) (Q9P286 whole entry, looked up, the tested form may be a part): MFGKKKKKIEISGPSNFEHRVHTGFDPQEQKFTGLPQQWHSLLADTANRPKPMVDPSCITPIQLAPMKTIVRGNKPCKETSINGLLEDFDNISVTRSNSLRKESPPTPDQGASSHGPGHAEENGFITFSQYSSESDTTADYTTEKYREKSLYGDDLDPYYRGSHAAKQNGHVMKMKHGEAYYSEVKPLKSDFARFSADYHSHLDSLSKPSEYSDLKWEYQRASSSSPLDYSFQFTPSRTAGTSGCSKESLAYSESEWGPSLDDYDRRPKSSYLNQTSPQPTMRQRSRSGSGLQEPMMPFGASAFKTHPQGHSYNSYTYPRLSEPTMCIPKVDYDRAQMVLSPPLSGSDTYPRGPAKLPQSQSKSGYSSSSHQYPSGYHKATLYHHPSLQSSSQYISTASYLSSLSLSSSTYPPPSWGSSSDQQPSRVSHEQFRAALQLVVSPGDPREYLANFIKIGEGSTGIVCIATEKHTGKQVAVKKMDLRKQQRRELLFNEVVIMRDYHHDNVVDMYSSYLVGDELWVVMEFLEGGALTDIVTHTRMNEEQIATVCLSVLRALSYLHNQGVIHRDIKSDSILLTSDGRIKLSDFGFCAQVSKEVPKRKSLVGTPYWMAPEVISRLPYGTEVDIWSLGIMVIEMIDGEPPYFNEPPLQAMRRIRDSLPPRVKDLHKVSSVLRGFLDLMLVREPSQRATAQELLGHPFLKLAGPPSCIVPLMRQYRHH

`CC(C)Nc1sc(C(=O)c2ccc(Cl)s2)c(N)c1C#N` showed an Activity [1] of 74%, an Activity [2] of 59% and an Activity [3] of 100%. It also gave an Activity [4] of 81%, an Activity [5] of 100% and an Activity [6] of 100%. It also gave an Activity [7] of 100%, an Activity [8] of 100% and an Activity [9] of 55%. It also gave an Activity [10] of 100%, an Activity [11] of 100% and an Activity [12] of 60%. It also gave an Activity [13] of 88%, an Activity [14] of 76% and an Activity [15] of 97%. For the same molecule, the Activity [16] was 99%, the Activity [17] was 91% and the Activity [18] was 80%. It also gave an Activity [19] of 94%, an Activity [20] of 100% and an Activity [21] of 95%. The Activity [22] was 93%, the Activity [23] was 100% and the Activity [24] was 47%. It also gave an Activity [25] of 72%.
